≈ marks a conversion by molar mass, not a printed value.
How the values were obtained:
[1] = Permeability of the compound by PAMPA analysis; format: ADME; conditions: read-out: permeability
[2] = Octanol-aqueous buffer distribution coefficient, log D of the compound at pH 7.4 by CAMDIS assay; format: physicochemical
[3] = Aqueous solubility of the compound; format: physicochemical; conditions: buffer
Hepatitis B virus [4] = test: Antiviral activity against HBV infected in human HepG2 cells assessed as reduction in HBeAg secretion incubated for 5 days by counter screen assay; format: functional, organism-based; conditions: HepG2, 120 h
Hepatitis B virus [5] = test: Antiviral activity against HBV infected in human HepDES19 cells assessed as reduction in HBV cccDNA production by measuring inhibition of HBeAg secretion incubated for 5 days by ELISA; format: functional, organism-based; conditions: HepDES19, 120 h
[6] = Metabolic stability in human microsomes assessed as clearance; format: ADME, Microsome; conditions: read-out: CLH
Hepatitis B virus [7] = test: Antiviral activity against HBV infected in human primary hepatocyte cells assessed as reduction in HBV cccDNA production by measuring inhibition of HBsAg secretion measured after 48 hrs by ELISA; format: functional, organism-based
[8] = Cytotoxicity against human HepDES19 cells assessed as reduction in cell viability measured after 5 days by CCK-8 assay; format: toxicity, cell-based; conditions: time 5 day
[9] = Therapeutic index, ratio of CC50 for cytotoxicity against human HepDES19 cells assessed as reduction in cell viability measured after 5 days by CCK-8 assay to IC50 for antiviral activity against HBV infected in human HepDES19 cells assessed as reduction in HBV cccDNA production by measuring inhibition of HBeAg secretion incubated for 5 days by ELISA; format: toxicity, cell-based; conditions: time 5 day, read-out: Ratio CC50/IC50

SMILES	Papp [1] [nm/s]	logD [2]	solubility [3] [mg/mL]	IC50 (Hepatitis B virus [5]) [µM]	CLint scaled [6] [L/h/kg]	IC50 (Hepatitis B virus [4]) [µM]	IC50 (Hepatitis B virus [7]) [µM]	CC50 at 120 h [8] [µM]	selectivity ratio at 120 h [9]
O=C(O)C1CCN(c2cc3oc4c(Cl)cccc4c(=O)c3cc2Cl)C1 (stereo not given)	15.9	1.95	< 0.001	1.12		> 50			
O=C(O)C1CCN(c2ccc3c(=O)c4cccc(Cl)c4oc3n2)C1 (stereo not given)	15.5		0.41 (≈ 1190 µM)	50	0.372	> 50			
N#Cc1ccc(Cl)c2oc3cc(N4CCC(C(=O)O)C4)ccc3c(=O)c12 (stereo not given)	8		> 0.443	1.1		> 50	12.4		
O=C(O)C1CCN(c2cc3oc4c(Cl)cccc4c(=O)c3cn2)C1 (stereo not given)	9.6	< -0.5	> 0.395	4.04		> 50			
O=C1Nc2ccc(N3CCC(C(=O)O)C3)cc2Oc2c(Cl)cccc21 (stereo not given)	10		< 0.415	> 50		> 50			
CN1CCN(c2ccc3c(=O)c4cccc(F)c4oc3c2)CC1	0.8		0.027 (≈ 86.4 µM)	16.1	1.08	> 50			
Cc1ccc(Cl)c2oc3cc(N4CCC(C(=O)O)C4)ccc3c(=O)c12 (stereo not given)	5.9	1.75	0.252 (≈ 704 µM)	1.12		> 50			
CCOc1ccc(Cl)c2oc3cc(N4CCC(C(=O)O)C4)ccc3c(=O)c12 (stereo not given)	7	0.93	0.33 (≈ 851 µM)	2.86		> 50			
OC1(C(F)(F)F)c2ccc(N3CCCC3)cc2Oc2c(Cl)cccc21 (stereo not given)	67.3		< 0.001	19.2		> 50			
CC1c2ccc(N3CCCC3)cc2Oc2c(Cl)cccc21 (stereo not given)	0.15		< 0.001	1.5		> 50			
O=C(Nc1ccc2c(=O)c3cccc(F)c3oc2c1)c1ccccc1O			< 0.001	6.79		> 50		35.1	5
N#Cc1cc2c(=O)c3cccc(Cl)c3oc2cc1N1CCC(C(=O)O)C1 (stereo not given)		< -0.5	> 0.43	8.23		> 50			
COc1ccc(Cl)c2oc3cc(N4CCC(C(=O)O)C4)ccc3c(=O)c12 (stereo not given)	6.8	0.47	> 0.415	> 50		> 50			
O=C1Nc2cccc(Cl)c2Oc2cc(N3CCC(C(=O)O)C3)ccc21 (stereo not given)	16.4			14.1		> 50			
O=C(O)C1CCN(c2ccc3c(c2)Oc2c(Cl)cccc2S3(=O)=O)C1 (stereo not given)	12.6		< 0.506	> 50		> 50			
O=C(Nc1ccc2c(=O)c3cccc(F)c3oc2c1)c1ccncc1F			< 0.001	2.43		> 50		> 100	> 20.6
O=C(O)C1CCN(c2ccc3c(=O)c4c(O)ccc(Cl)c4oc3c2)C1 (stereo not given)	5.3	1.71	0.2 (≈ 556 µM)	1.74		> 50			
COc1ccccc1C(=O)Nc1ccc2c(=O)c3cccc(F)c3oc2c1			< 0.001	84.9		> 50		> 100	> 1
O=C(Nc1ccc2c(=O)c3cccc(Cl)c3oc2c1)c1ccccc1[N+](=O)[O-]			< 0.001	10.9		> 50		> 100	> 9
O=C(Nc1ccc2c(=O)c3ccccc3oc2c1)c1ccccc1F			< 0.001	4.03		> 50		> 50	> 13
Clc1cccc2c1Oc1cc(N3CCCC3)ccc1C2C1COC1 (stereo not given)	0.9			7.33		> 50			

Now from value to compound, other results behind:

Papp [1] [nm/s]	logD [2]	solubility [3] [mg/mL]	IC50 (Hepatitis B virus [5]) [µM]	CLint scaled [6] [L/h/kg]	SMILES	IC50 (Hepatitis B virus [4]) [µM]	IC50 (Hepatitis B virus [7]) [µM]	CC50 at 120 h [8] [µM]	selectivity ratio at 120 h [9]
86.4		0.03 (≈ 87.3 µM)	> 100	0.402	O=C(O)c1cc2c(=O)c3cccc(Cl)c3oc2cc1N1CCCC1	> 50			
7.9		0.023 (≈ 77.1 µM)	4.85	0.402	NC1CCN(c2ccc3c(=O)c4cccc(F)c4oc3c2)C1 (stereo not given)	> 50			
17.8	1.26	> 0.51	27		O=C(O)C1(C(F)(F)F)CCN(c2ccc3c(=O)c4cccc(Cl)c4oc3c2)C1 (stereo not given)	> 50			
2.4		< 0.001	0.23	1.13	O=c1c2ccc(N3CCCC3)cc2oc2c(Cl)cccc12	> 50			
4.9		< 0.001	0.98	1.21	O=c1c2ccc(N3CCCCC3)cc2oc2c(Cl)cccc12	> 50			
30.2	1.09	> 0.43	1.92		O=C(O)[C@H]1CCN(c2ccc3c(=O)c4cccc(Cl)c4oc3c2)C1	> 50	1.58		
2.2		< 0.001	1.89		O=C(Nc1ccc2c(=O)c3cccc(F)c3oc2c1)c1ccccc1	> 50		> 100	> 53
24.3		< 0.474	3.82	0.372	O=C(O)C1CCCN(c2ccc3c(=O)c4cccc(Cl)c4oc3c2)C1 (stereo not given)	> 50			
9.8		0.294 (≈ 791 µM)	12.7		CC1(C)CN(c2ccc3c(=O)c4cccc(Cl)c4oc3c2)CC1C(=O)O (stereo not given)	> 50			
67.3		< 0.001	0.17	0.942	CCNc1ccc2c(=O)c3cccc(Cl)c3oc2c1	> 50			
20.9		< 0.001	0.83	1.32	O=C1CCCN1c1ccc2c(=O)c3cccc(F)c3oc2c1	> 50			
14.9		< 0.001	0.43	1.05	O=c1c2ccc(N3CCC(O)C3)cc2oc2c(F)cccc12 (stereo not given)	> 50			
15.5		< 0.465	6.62		O=C(O)CC1CCN(c2ccc3c(=O)c4cccc(Cl)c4oc3c2)C1 (stereo not given)	> 50			
		< 0.001	2.62		O=C(Nc1ccc2c(=O)c3cccc(F)c3oc2c1)c1ccccc1Cl	> 50		> 100	> 38
		< 0.001	3.99		Fc1cccc2c1Oc1cc(N3CCCC3)ccc1C2	> 50			
20.9		< 0.001	5.86		O=C1Nc2ccc(N3CCCC3)cc2Oc2c(Cl)cccc21	> 50			

Papp [1] [nm/s]	logD [2]	solubility [3] [mg/mL]	IC50 (Hepatitis B virus [5]) [µM]	CLint scaled [6] [L/h/kg]	SMILES	IC50 (Hepatitis B virus [4]) [µM]	IC50 (Hepatitis B virus [7]) [µM]	CC50 at 120 h [8] [µM]	selectivity ratio at 120 h [9]
5.4		< 0.001	1.65	1.22	CCN(CC)c1ccc2c(=O)c3cccc(Cl)c3oc2c1	> 50			
91			19.2	1.24	O=c1c2ccc(N3CCCC3)nc2oc2c(F)cccc12	> 50			
27.9		0.29 (≈ 844 µM)	11.5	0.372	O=C(O)C1CCCN1c1ccc2c(=O)c3cccc(Cl)c3oc2c1 (stereo not given)	> 50			
20.3	1.73		1.74		CC1(C(=O)O)CCN(c2ccc3c(=O)c4cccc(Cl)c4oc3c2)C1 (stereo not given)	> 50			
9.5		< 0.001	0.21	1.23	O=c1c2ccc(N3CCCC3)cc2oc2c(F)cccc12	> 50			
3.6		< 0.001	1.11		Clc1cccc2c1Oc1cc(N3CCCC3)ccc1C2	> 50			
			0.49		Cn1ccnc1C(=O)Nc1ccc2c(=O)c3cccc(F)c3oc2c1	> 50		> 50	> 102
	1.39		1.17		O=C(O)C1CCN(c2cc3oc4c(Cl)cccc4c(=O)c3cc2F)C1 (stereo not given)	> 50	7.74		
18		< 0.001	2.1	1.25	O=c1c2ccc(N3CCOCC3)cc2oc2c(F)cccc12	> 50			
			7.39		O=C(O)[C@H]1CN(c2ccc3c(=O)c4cccc(Cl)c4oc3c2)C[C@@H]1c1ccc(F)cc1	> 50			
		< 0.001	1.14		O=C(Nc1ccc2c(=O)c3cccc(F)c3oc2c1)c1ccncc1	> 50		> 100	> 134
16.4		0.073 (≈ 234 µM)	7.56	0.372	O=c1c2ccc(N3CCCCCC3)cc2oc2c(F)cccc12	> 50			
		< 0.001	18.3		CN(C(=O)c1ccncc1)c1ccc2c(=O)c3cccc(F)c3oc2c1	> 50		> 100	> 5
85		< 0.001	6.21	1.18	CC(=O)Nc1ccc2c(=O)c3cccc(F)c3oc2c1	> 50			
3.6		< 0.001	0.61	1.36	CCNc1ccc2c(=O)c3cccc(F)c3oc2c1	> 50			

From ChEMBL document CHEMBL5137099, “Discovery of Novel cccDNA Reducers toward the Cure of Hepatitis B Virus Infection” (J Med Chem, 2022)
